Tests used:
CYP2B6 = target: T1, CYP2B6 (Homo sapiens, UniProt P20813); assay: Induction of CYP2B6 activity in human donor hepatocytes assessed as hydroxybupropion formation after 48 hrs by LC/MS method; format: ADME, cell-based, Hepatocyte; conditions: probe bupropion (hydroxybupropion formation measured)
T1 sequence (P20813 whole entry): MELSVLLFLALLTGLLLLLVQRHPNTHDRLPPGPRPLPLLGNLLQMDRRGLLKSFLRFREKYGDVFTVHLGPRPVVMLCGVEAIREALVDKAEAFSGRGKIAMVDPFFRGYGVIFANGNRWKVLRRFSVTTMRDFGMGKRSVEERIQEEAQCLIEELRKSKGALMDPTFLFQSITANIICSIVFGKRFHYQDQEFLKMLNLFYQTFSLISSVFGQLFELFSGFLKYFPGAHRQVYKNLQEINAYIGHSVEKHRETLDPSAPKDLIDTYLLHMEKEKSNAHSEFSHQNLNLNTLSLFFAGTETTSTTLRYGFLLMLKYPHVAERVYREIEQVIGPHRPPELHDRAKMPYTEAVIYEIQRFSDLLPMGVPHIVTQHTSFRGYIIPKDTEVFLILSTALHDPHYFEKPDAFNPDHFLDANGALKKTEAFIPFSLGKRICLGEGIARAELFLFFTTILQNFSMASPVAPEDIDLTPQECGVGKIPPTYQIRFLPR

Hepatocyte = assay: Induction of CYP2B6 mRNA expression in human donor hepatocytes after 48 hrs by real-time PCR method; format: ADME, cell-based

SMILES | EC50 at 48 h (CYP2B6) | EC50 (Hepatocyte)
NC(=O)N1c2ccccc2C=Cc2ccccc21 [CARBAMAZEPINE] | 145 µM | 26 µM
C[C@]12CC[C@@H]3c4ccc(O)cc4CC[C@H]3[C@@H]1CC[C@@H]2O [ESTRADIOL] | 4.1 µM | 1.9 µM
CO[C@H]1/C=C/O[C@@]2(C)Oc3c(C)c(O)c4c(O)c(c(/C=N/N5CCN(C)CC5)c(O)c4c3C2=O)NC(=O)/C(C)=C\C=C\[C@H](C)[C@H](O)[C@@H](C)[C@@H](O)[C@@H](C)[C@H](OC(C)=O)[C@@H]1C [RIFAMPIN] | 1.3 µM | 0.98 µM

From ChEMBL document CHEMBL3525948, “Quantitative prediction of CYP2B6 induction by estradiol during pregnancy: potential explanation for increased methadone clearance during pregnancy” (Drug Metab Dispos, 2013)
